Legend:
Assay type in all cases: cell-based
IL-2 [1] = assay: PHA-IL2 (cell activation and cytokine analysis); conditions: 50% inhibition concentration class
In short: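 Cells were seeded in 96-well plates at 1.0-2.0×10^6 cells/ml in 150 ul of RPMI containing 0.5% fetal calf serum. Test compounds, at up to ≤20 uM, were preincubated with the cells for 30 minutes, then phytohemagglutinin (PHA) was added and cultures were stimulated for 24-48 hours at 37 degrees C./5% CO2. Supernatant IL-2 was then quantified by standard ELISA.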

NFAT = assay: NFAT-dependent Firefly luciferase reporter assay in Jurkat T cells stimulated with PMA and ionomycin; conditions: Homo sapiens, PMA and ionomycin for 6 hours, read-out: concentration required to achieve 50% inhibition (IC50) of NFAT-dependent luciferase activity
Procedure: Jurkat T cells were transiently transfected with a DNA plasmid encoding Firefly luciferase under the transcriptional control of an appropriate regulatory element that may include multimerized NFAT, AP-1, NFκB, or CREB binding sites. Cells were co-transfected with a DNA plasmid encoding Renilla luciferase under the transcriptional control of a constitutive regulatory element (e.g., HSV-TK promoter). 24 hours following transfection, cells were collected and re-seeded in 96-well plates at a final density of 1.0×10^6 cells/ml in 150 ul assay medium. Compound 413 was included at a final concentration of ≤20 uM and pre-incubated with cells for 30 minutes prior to stimulation. […] Cells were then lysed and the level of Firefly luciferase and Renilla Luciferase activity was determined using a standard assay (e.g., Promega's Dual Luciferase Reporter Assay System) and plate-reading luminometer. The ratio obtained by dividing activation induced Firefly luciferase activity by the constitutive Renilla luciferase activity was calculated and used as a quantitative measurement of cell activation.
More specifically, Jurkat T cells were co-transfected with a NFAT-dependent Firefly Luciferase reporter plasmid and a control Renilla Luciferase reporter plasmid. […] Lysates were prepared and analyzed for luciferase activity using the Dual Luciferase Reporter Assay System (Promega). […]

IL-2 [2] = assay: IL-2 secretion by ELISA in Jurkat T cells stimulated with PMA and ionomycin; conditions: Homo sapiens, supernatants harvested at 20 hours, read-out: concentration required to achieve 50% inhibition (IC50) of IL-2
Procedure: Jurkat (a transformed human T cell leukemia) cells were plated in 96-well plates at a final density of 1.0-2.0×10^6 cells/ml in 150 ul of assay medium (RPMI+0.5% fetal calf serum). Compounds 403 and 413 were included at a final concentration of ≤20 uM and pre-incubated with cells for 30 minutes prior to stimulation. Mitogens PMA and ionomycin were added to the T cell receptor (TCR) complex (e.g., anti-CD3c) and CD28. Cell cultures were stimulated for 24-48 hours in a humidified incubator (37 degrees C./5% CO2). A fraction of the culture supernatant was then harvested from each well and assayed for the presence of appropriate cytokine using standard ELISA. Cytokines analyzed was IL-2. If required, the number of cytokine producing cells can be determined using intracellular staining and flow cytometry.
More specifically, Jurkat T cells were stimulated with the mitogens PMA and ionomycin in the presence of varying concentrations of compound 403 or compound 413. Supernatants were harvested at 20 hours and analyzed for IL-2 content by ELISA. IL-2 values obtained from vehicle (DMSO) treated control wells (˜2800 pg/ml) were assigned a value of 100% and used to calculate the % inhibition achieved for each compound.

IC50 (IL-2 [1]): < 1000 nM | IC50 (NFAT): 9 nM | IC50 (IL-2 [2]): 18 nM
Structure (SMILES): CC(C)Oc1cccc(CCC2CCN(C(=O)COc3ccc(C#N)cc3-c3ccc(C#N)cc3)CC2)c1 [Compound 413]

From patent US10899747B2, “Biaryl piperidine amide compounds and methods of use thereof” (Athenex, Inc., priority 2017, dated 2021)
